Tests used:
SETVI [1] = test: Post-emergence action at 320 g/ha against SETVI; format: in vivo, Setaria viridis; settings: visual rating about 3 weeks after treatment vs untreated controls
In short: (§1)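 Greenhouse pot plants in sandy loam received a foliar spray of WP- or EC-formulated compound at the one-leaf stage. Percent activity against untreated controls was assessed visually around three weeks later.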

ALOMY = test: Post-emergence action against ALOMY, 320 g/ha; format: in vivo, Alopecurus myosuroides; settings: dosage 320 g/ha, visual rating about 3 weeks after treatment vs untreated controls (100% = plants died)
In short: as §1

MATIN [2] = test: Pre-emergence action against MATIN, 1280 g/ha; format: in vivo, Tripleurospermum inodorum (Matricaria inodora); settings: scored visually after about 3 weeks vs untreated controls (100% = plants have died)
In short: (§2)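 In greenhouse pots of sandy loam, sown weed seeds were covered with soil and treated pre-emergence with the compound in water (600 L/ha, 0.5% additive). Efficacy was assessed visually as percent of untreated control after about 3 weeks.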

POLCO [3] = test: Post-emergence action at 320 g/ha against POLCO; format: in vivo, Fallopia convolvulus (Polygonum convolvulus); settings: visual rating about 3 weeks after treatment vs untreated controls
Description: (§3) Accordingly, the compounds of the invention have good herbicidal action against a broad spectrum of weed grasses and broad-leaved weeds and are therefore suitable for controlling unwanted vegetation by the post-emergence method. • b) Seeds of monocotyledonous and dicotyledonous weeds and crop plants are placed in sandy loam in plastic or organic planting pots, covered with soil and cultivated in a greenhouse under controlled growth conditions. 2 to 3 weeks after sowing, the test plants are treated at the one-leaf stage. The compounds of the invention, formulated in the form of wettable powders (WP) or as emulsion concentrates (EC), are then sprayed onto the green parts of the plants as aqueous suspension or emulsion with addition of 0.5% additive at a water application rate of 600 l/ha (converted). After the test plants have been kept in the greenhouse under optimum growth conditions for about 3 weeks, the activity of the preparations is rated visually in comparison to untreated controls. For example, 100% activity=the plants have died, 0% activity=like control plants. Tables 39 to 49 below show the effects of selected compounds of the general formula (I) according to Tables 1 and 2 on various harmful plants and at an application rate corresponding to 320 g/ha, which were obtained by the experimental procedure mentioned above.

SETVI [4] = test: Pre-emergence action against SETVI, 1280 g/ha; format: in vivo, Setaria viridis; settings: visual scoring after about 3 weeks vs untreated controls, 100% = plants have died, 0% = like control plants
In short: as §2

VIOTR [5] = test: Post-emergence action at 320 g/ha against VIOTR; format: in vivo, Viola tricolor; settings: visual rating about 3 weeks after treatment vs untreated controls
Description: as §3

POLCO [6] = test: Pre-emergence action at 320 g/ha against POLCO; format: in vivo, Fallopia convolvulus (Polygonum convolvulus); settings: visual scoring after about 3 weeks vs untreated controls
In short: (§4)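 Application: aqueous WP or EC with 0.5% additive on soil covering seeds, 600 l/ha. Read-out: visual percent damage after ~3 weeks in greenhouse, untreated pots as reference.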

VIOTR [7] = test: Pre-emergence action at 320 g/ha against VIOTR; format: in vivo, Viola tricolor; settings: dosage 320 g/ha
In short: as §4

ABUTH = test: Post-emergence action against ABUTH, 1.28 kg/ha; format: in vivo, Abutilon theophrasti; settings: dosage 1280 g/ha, visual rating about 3 weeks after treatment vs untreated controls (100% = plants died)
In short: (§5)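 Visual rating against untreated plants about 3 weeks after spraying gives % activity, where 0% means like controls and 100% means plants died. Plants were treated post-emergence at the one-leaf stage with compound formulated as wettable powder or emulsion concentrate, applied at 600 L water/ha plus 0.5% additive.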

LOLRI [8] = test: Post-emergence action against LOLRI, 1.28 kg/ha; format: in vivo, Lolium rigidum; settings: dosage 1280 g/ha, visual rating about 3 weeks after treatment vs untreated controls
In short: as §5

DIGSA [9] = test: Pre-emergence action at 320 g/ha against DIGSA; format: in vivo, Digitaria sanguinalis; settings: visual scoring after about 3 weeks vs untreated controls
In short: as §4

AMARE [10] = test: Pre-emergence action against AMARE, 1280 g/ha; format: in vivo, Amaranthus retroflexus; settings: scored visually after about 3 weeks vs untreated controls (100% = plants have died)
In short: as §2

LOLRI [11] = test: Pre-emergence action against LOLRI, 1280 g/ha; format: in vivo, Lolium rigidum; settings: visual scoring after about 3 weeks vs untreated controls, 100% = plants have died, 0% = like control plants
In short: as §2

ECHCG = test: Pre-emergence action against ECHCG, 1280 g/ha; format: in vivo, Echinochloa crus-galli; settings: visual scoring after about 3 weeks vs untreated controls, 100% = plants have died, 0% = like control plants
In short: as §2

STEME [12] = test: Pre-emergence action against STEME, 1280 g/ha; format: in vivo, Stellaria media; settings: scored visually after about 3 weeks vs untreated controls (100% = plants have died)
In short: as §2

POAAN [13] = test: Post-emergence action against POAAN, 1.28 kg/ha; format: in vivo, Poa annua; settings: dosage 1280 g/ha, visual rating about 3 weeks after treatment vs untreated controls
In short: as §5

DIGSA [14] = test: Post-emergence action against DIGSA, 1.28 kg/ha; format: in vivo, Digitaria sanguinalis; settings: dosage 1280 g/ha, visual rating about 3 weeks after treatment vs untreated controls
In short: as §5

HORMU = test: Post-emergence action at 320 g/ha against HORMU; format: in vivo, Hordeum murinum; settings: visual rating about 3 weeks after treatment vs untreated controls
Description: as §3

SETVI [15] = test: Post-emergence action against SETVI, 1.28 kg/ha; format: in vivo, Setaria viridis; settings: dosage 1280 g/ha, visual rating about 3 weeks after treatment vs untreated controls
In short: as §5

STEME [16] = test: Pre-emergence action at 320 g/ha against STEME; format: in vivo, Stellaria media; settings: greenhouse, scored visually after about 3 weeks vs untreated controls, 100% = plants have died, 0% = like control plants
Description: b) Seeds of monocotyledonous and dicotyledonous weed plants and crop plants are placed in plastic or organic planting pots and covered with soil. The compounds of the invention, formulated in the form of wettable powders (WP) or as emulsion concentrates (EC), are then applied onto the surface of the covering soil as aqueous suspension or emulsion with addition of 0.5% additive at a water application rate of 600 l/ha (converted). After the treatment, the pots are placed in a greenhouse and kept under good growth conditions for the trial plants. After about 3 weeks, the effect of the preparations is scored visually in comparison with untreated controls as percentages. For example, 100% activity=the plants have died, 0% activity=like control plants. Tables 13 to 26 below show the effects of selected compounds of the general formula (I) on various harmful plants and at an application rate corresponding to 320 g/ha, which were obtained by the experimental procedure mentioned above.

VERPE [17] = test: Post-emergence action against VERPE, 1.28 kg/ha; format: in vivo, Veronica persica; settings: dosage 1280 g/ha, visual rating about 3 weeks after treatment vs untreated controls (100% = plants died)
In short: as §5

SETVI [18] = test: Pre-emergence action at 320 g/ha against SETVI; format: in vivo, Setaria viridis; settings: visual scoring after about 3 weeks vs untreated controls
In short: as §4

MATIN [19] = test: Post-emergence action against MATIN, 1.28 kg/ha; format: in vivo, Tripleurospermum inodorum (Matricaria inodora); settings: dosage 1280 g/ha, visual rating about 3 weeks after treatment vs untreated controls (100% = plants died)
In short: as §5

STEME [20] = test: Post-emergence action against STEME, 1.28 kg/ha; format: in vivo, Stellaria media; settings: dosage 1280 g/ha, visual rating about 3 weeks after treatment vs untreated controls (100% = plants died)
In short: as §5

DIGSA [21] = test: Pre-emergence action against DIGSA, 1280 g/ha; format: in vivo, Digitaria sanguinalis; settings: visual scoring after about 3 weeks vs untreated controls, 100% = plants have died, 0% = like control plants
In short: as §2

POAAN [22] = test: Pre-emergence action against POAAN, 1280 g/ha; format: in vivo, Poa annua; settings: visual scoring after about 3 weeks vs untreated controls, 100% = plants have died, 0% = like control plants
In short: as §2

AVEFA = test: Post-emergence action at 320 g/ha against AVEFA; format: in vivo; settings: visual rating about 3 weeks after treatment vs untreated controls
In short: as §1

AMARE [23] = test: Pre-emergence action at 320 g/ha against AMARE; format: in vivo, Amaranthus retroflexus; settings: visual scoring after about 3 weeks vs untreated controls
In short: as §4

VERPE [24] = test: Pre-emergence action against VERPE, 1280 g/ha; format: in vivo, Veronica persica; settings: scored visually after about 3 weeks vs untreated controls (100% = plants have died)
In short: as §2

AMARE [25] = test: Post-emergence action against AMARE, 1.28 kg/ha; format: in vivo, Amaranthus retroflexus; settings: dosage 1280 g/ha, visual rating about 3 weeks after treatment vs untreated controls (100% = plants died)
In short: as §5

Q: Which “Post-emergence action against SETVI in %” value (SETVI [1]) does the source give for `COC(=O)C(C)Oc1nn(-c2ccccc2)c(-c2ccnc(Cl)c2)c1Cl` (stereo not drawn) [VIII-001] here?
A: Its value is 80%.

Q: What about the “Post-emergence action against ALOMY” value (ALOMY) of the same molecule?
A: Its value is 90%.

Q: What about the “Pre-emergence action against MATIN” value (MATIN [2]) of the same molecule?
A: Its value is 90%.

Q: What about the “Post-emergence action against POLCO in %” value (POLCO [3]) of the same molecule?
A: Its value is 90%.

Q: And the “Pre-emergence action against SETVI” value (SETVI [4])?
A: Its value is 100%.

Q: And the “Post-emergence action against VIOTR in %” value (VIOTR [5])?
A: The value was 80%.

Q: What about the “Pre-emergence action against POLCO in %” value (POLCO [6]) of the same molecule?
A: The value was 90%.

Q: And the “Pre-emergence action against VIOTR in %” value (VIOTR [7])?
A: The value was 90%.

Q: And the “Post-emergence action against ABUTH” value (ABUTH)?
A: The value was 90%.

Q: What about the “Post-emergence action against LOLRI” value (LOLRI [8]) of the same molecule?
A: Its value is 90%.

Q: And the “Pre-emergence action against DIGSA in %” value (DIGSA [9])?
A: The value was 100%.

Q: And the “Pre-emergence action against AMARE” value (AMARE [10])?
A: Its value is 90%.

Q: And the “Pre-emergence action against LOLRI” value (LOLRI [11])?
A: The value was 100%.

Q: And the “Pre-emergence action against ECHCG” value (ECHCG)?
A: Its value is 100%.

Q: What about the “Pre-emergence action against STEME” value (STEME [12]) of the same molecule?
A: The value was 90%.

Q: What about the “Post-emergence action against POAAN” value (POAAN [13]) of the same molecule?
A: The value was 100%.

Q: What about the “Post-emergence action against DIGSA” value (DIGSA [14]) of the same molecule?
A: Its value is 90%.

Q: And the “Post-emergence action against HORMU in %” value (HORMU)?
A: The value was 80%.

Q: What about the “Post-emergence action against SETVI” value (SETVI [15]) of the same molecule?
A: The value was 90%.

Q: And the “Pre-emergence action at 320 g/ha against STEME in %” value (STEME [16])?
A: The value was 90%.

Q: What about the “Post-emergence action against VERPE” value (VERPE [17]) of the same molecule?
A: Its value is 100%.

Q: And the “Pre-emergence action against SETVI in %” value (SETVI [18])?
A: Its value is 100%.

Q: What about the “Post-emergence action against MATIN” value (MATIN [19]) of the same molecule?
A: Its value is 90%.

Q: And the “Post-emergence action against STEME” value (STEME [20])?
A: Its value is 100%.

Q: What about the “Pre-emergence action against DIGSA” value (DIGSA [21]) of the same molecule?
A: The value was 90%.

Q: What about the “Pre-emergence action against POAAN” value (POAAN [22]) of the same molecule?
A: Its value is 100%.

Q: What about the “Post-emergence action against AVEFA in %” value (AVEFA) of the same molecule?
A: Its value is 80%.

Q: And the “Pre-emergence action against AMARE in %” value (AMARE [23])?
A: Its value is 90%.

Q: What about the “Pre-emergence action against VERPE” value (VERPE [24]) of the same molecule?
A: Its value is 100%.

Q: And the “Post-emergence action against AMARE” value (AMARE [25])?
A: Its value is 90%.

Reference: US12180187B2, “1-phenyl-5-azinylpyrazolyl-3-oxyalkyl acids and their use for controlling unwanted plant growth” (BAYER AKTIENGESELLSCHAFT, priority 2019, dated 2024)
